Measured values published in EP2119770B1, “Production of alpha-oxyfunctionalized carbonyl compounds” (priority 2008, dated 2009).

Experiments:
Gox2684 = target: T1, Gox2684 (Gluconobacter oxydans, UniProt Q5HXK5); test: Enzyme activity assay (rate of NAD(P)H decrease at 340 nm), Gox2684; assay type: biochemical; settings: Tab. 8, GOX2684; cofactor NADPH; 10 mM substrate, pH 7.0, 30 °C
T1 sequence (Q5HXK5 1-357): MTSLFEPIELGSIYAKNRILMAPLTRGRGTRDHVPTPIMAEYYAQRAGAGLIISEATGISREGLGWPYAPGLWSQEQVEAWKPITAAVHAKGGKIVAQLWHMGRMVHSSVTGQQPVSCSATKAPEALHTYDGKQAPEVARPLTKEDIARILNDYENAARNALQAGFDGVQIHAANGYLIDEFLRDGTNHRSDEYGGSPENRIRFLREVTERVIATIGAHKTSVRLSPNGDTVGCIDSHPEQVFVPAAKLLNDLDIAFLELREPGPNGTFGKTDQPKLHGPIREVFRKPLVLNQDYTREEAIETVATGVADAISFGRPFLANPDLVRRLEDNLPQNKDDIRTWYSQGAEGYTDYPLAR
Description: (§1) Measurment of enzyme activity: NADPH-dependent alpha-ketocarbonyl reductases were assayed by a routine method used for NAD(P)-linked enzymes by recording the rate of decrease of NADPH at 340 nm (ε = 6.22 mM^-1 x cm^-1)) with substrates at 30 °C. The reaction mixture (1 ml) for reduction of alpha-ketocarbonyl substrates contained 10 mM substrate, 40 mM potassium phosphate buffer pH 7.0, 0.025 mM NAD(P)H , and the enzyme. Reactions were induced by addition of enzyme or substrate. One unit of enzyme activity was defined as the amount of enzyme catalyzing the conversion of 1 µmol of pyridine nucleotide per min at 30 °C.
(§2) NADPH-dependent α-ketocarbonyl reductases were assayed by a routine method used for NAD(P)-linked enzymes by recording the rate of decrease of NADPH at 340 nm (ε = 6.22 mM^-1.cm^-1) with substrates at 30 °C. The reaction mixture (1 ml) for reduction of alpha-ketocarbonyl substrates contained 10 mM substrate, 40 mM potassium phosphate buffer pH 7.0, 0.025 mM NADPH , and the enzyme. Reactions were induced by addition of enzyme or substrate. One unit of enzyme activity was defined as the amount of enzyme catalyzing the conversion of 1 µmol of pyridine nucleotide per min at 30 °C.
(§3) For each enzyme (Gox0313, Gox0502, Gox0644, Gox0646, Gox1615, Gox2107, and Gox2684 respectively), fresh enzyme preparations were used to validate the substrate spectrum and the kinetic activity. […] Purified NAD(P)-dependent oxidoreductases were assayed at 30 °C by a routine method used for NAD(P)-linked enzymes by recording the rate of decrease of NAD(P)H at 340 nm (ε = […]) with substrates capable of reduction reactions. The standard reaction mixture (1 ml) for the reduction reactions of substrates contained 10 mM substrate, 40 mM potassium phosphate buffer (K-phosphate buffer) pH 7.0, 0.05 mM NAD(P)H, and the enzyme unless otherwise noted. Reactions were induced by addition of enzyme or substrate. One unit of enzyme activity was defined as the amount of enzyme catalyzing the conversion of 1 µmol of pyridine nucleotide per min at 30 °C. Measurement of the protein content was performed by the method of Bradford in Anal. Biochem. 72:248-254 (1976). Table 3: Summary of enzymatic activities with α-diketones, α-ketoaldehydes and /or α-ketoesters

Gox0502 [1] = target: T2, Gox0502 (Gluconobacter oxydans, UniProt Q5FTL6); test: Enzyme activity assay (rate of NAD(P)H decrease at 340 nm), Gox0502; assay type: biochemical; design: Strep-tag II (N); made in house; host or cells: E. coli BL21 or E. coli DH5α (pASK-IBA5); settings: Tab. 7, Gox0502; cofactor NADPH; 10 mM substrate, pH 7.0, 30 °C
T2 sequence (Q5FTL6 1-361): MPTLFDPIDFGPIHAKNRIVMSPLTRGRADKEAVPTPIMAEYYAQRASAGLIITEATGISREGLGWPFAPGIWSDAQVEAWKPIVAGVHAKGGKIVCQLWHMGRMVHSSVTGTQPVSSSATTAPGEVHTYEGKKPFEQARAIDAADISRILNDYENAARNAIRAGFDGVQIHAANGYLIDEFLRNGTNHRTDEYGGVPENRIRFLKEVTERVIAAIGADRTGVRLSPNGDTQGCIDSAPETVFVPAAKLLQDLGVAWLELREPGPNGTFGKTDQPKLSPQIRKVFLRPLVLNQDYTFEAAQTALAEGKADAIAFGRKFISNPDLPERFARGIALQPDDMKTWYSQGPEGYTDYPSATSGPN
Description: as §1, §2, §3

Gox2107 [2] = target: T3, Gox2107 (Gluconobacter oxydans, UniProt Q5FP53); test: Enzyme kinetics (Lineweaver-Burk plots), Gox2107; assay type: biochemical; settings: NADPH-dependent reduction
Description: Determination of pH and temperature optima and enzyme kinetics: The optimum pH for enzyme activities was determined by a modified method of Salusjärvi, T. et al., Appl. Microbiol. Biotechnol. 65:306-314 (2004) using the following buffer system (50 mM final concentration each): sodium acetate pH 4.5 - 6.5, potassium phosphate pH 6.5 - 8.0, Tris-HCl pH 8.0 - 10. Temperature optima for the biocatalysts were determined under standard reaction conditions at temperatures ranging from 20 - 80 °C. The Michaelis constant (Km) for the proteins was determined from purified enzyme by Lineweaver-Burk plots. Assays were performed at optimum pH for each enzyme and at 30 °C using the top substrate and a targeted substrate. The Km for each substrate was calculated using concentrations of 0.0025 to 10 mM, and the Km NAD(P)H and NAD(P) was calculated using concentrations of 0.01 to 0.5 mM
The Michaelis constants were determined from purified enzyme by Lineweaver-Burk plots. The Km and Vmax values for the substrates were calculated using concentrations of 0.025 to 10 mM, The optimal pH values and temperatures for enzyme activities are also shown in Tab. 11. Tab. 11: Summary of kinetic parameters

Gox1615 = target: T4, Gox1615 (Gluconobacter oxydans, UniProt Q5FQJ0); test: Enzyme activity assay (rate of NAD(P)H decrease at 340 nm), Gox1615; assay type: biochemical; settings: Tab. 5, Gox1615; cofactor NADPH; 10 mM substrate, pH 7.0, 30 °C
T4 sequence (Q5FQJ0 1-332): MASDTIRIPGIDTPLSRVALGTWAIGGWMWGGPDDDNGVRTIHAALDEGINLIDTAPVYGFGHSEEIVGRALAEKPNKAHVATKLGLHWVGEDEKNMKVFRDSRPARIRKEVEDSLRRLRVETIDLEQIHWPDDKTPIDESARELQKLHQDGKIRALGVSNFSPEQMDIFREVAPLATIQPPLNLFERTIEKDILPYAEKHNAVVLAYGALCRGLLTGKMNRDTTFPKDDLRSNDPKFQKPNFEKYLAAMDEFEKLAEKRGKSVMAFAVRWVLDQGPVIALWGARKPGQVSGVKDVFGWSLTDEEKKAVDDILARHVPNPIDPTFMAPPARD
Description: as §1, §2, §3

Gox0502 [3] = target: T2, Gox0502; test: Enzyme kinetics (Lineweaver-Burk plots), Gox0502; settings: NADPH-dependent reduction
Gox0313 = target: T5, Gox0313 (Gluconobacter oxydans, UniProt Q5FU50); test: Enzyme activity assay (rate of NAD(P)H decrease at 340 nm), Gox0313; assay type: biochemical; settings: Tab. 6, Gox0313; substrate reduction, cofactor NADH; 10 mM substrate, pH 7.0, 30 °C
T5 sequence (Q5FU50 1-343): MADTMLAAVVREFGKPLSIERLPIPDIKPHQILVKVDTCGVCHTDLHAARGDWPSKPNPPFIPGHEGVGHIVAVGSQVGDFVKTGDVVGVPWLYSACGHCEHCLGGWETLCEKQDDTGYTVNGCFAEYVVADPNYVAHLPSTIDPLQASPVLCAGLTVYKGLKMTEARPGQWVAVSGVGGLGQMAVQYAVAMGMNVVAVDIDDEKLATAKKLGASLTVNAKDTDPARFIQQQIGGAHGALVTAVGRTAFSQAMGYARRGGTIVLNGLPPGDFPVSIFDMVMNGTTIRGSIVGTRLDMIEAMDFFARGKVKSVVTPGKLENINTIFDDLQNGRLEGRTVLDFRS
Description: as §1, §2, §3

Gox2107 [4] = target: T3, Gox2107; test: Enzyme activity assay (rate of NAD(P)H decrease at 340 nm), Gox2107; assay type: biochemical
Description: as §1, §2, §3

Gox1122 = target: T6, Gox1122 (Gluconobacter oxydans, UniProt Q5FRV6); settings: using NADPH, pH range of 4-10
T6 sequence (Q5FRV6 1-463): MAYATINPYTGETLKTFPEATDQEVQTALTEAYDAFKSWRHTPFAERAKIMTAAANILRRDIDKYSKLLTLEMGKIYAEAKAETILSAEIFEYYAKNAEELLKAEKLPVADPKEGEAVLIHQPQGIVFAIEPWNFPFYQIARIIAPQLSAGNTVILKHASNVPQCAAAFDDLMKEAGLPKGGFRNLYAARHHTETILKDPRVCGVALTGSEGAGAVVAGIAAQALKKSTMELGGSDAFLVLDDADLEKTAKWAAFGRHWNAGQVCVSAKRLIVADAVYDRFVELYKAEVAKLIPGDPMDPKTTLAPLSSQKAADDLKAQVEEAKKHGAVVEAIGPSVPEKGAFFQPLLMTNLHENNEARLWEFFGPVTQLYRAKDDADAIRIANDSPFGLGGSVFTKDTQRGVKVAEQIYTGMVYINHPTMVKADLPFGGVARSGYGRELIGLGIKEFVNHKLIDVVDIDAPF
Source text: The enzyme is used in a combined enzymatic reaction between the NADPH-dependent reductases (see above) that form α-hydroxy carbonyl compounds.

C=CC(C)=O [3-buten-2-one]
Specific Activities (Gox2684): 8.8 U/mg | Specific Activity (Gox0502 [1]): 21 U/mg | Vmax (Gox2107 [2]): 119 U/mg protein | Specific Activity (Gox1615): 0.7 U/mg | Vmax (Gox0502 [3]): 21 U/mg protein | Specific Activity (Gox0313): 1.9 U/mg | activities (Gox2107 [4]; Gox2107, reduction with NADPH): 119 µmol/mg/min | Specific Activity (Gox2107 [4]; Tab. 7, Gox2107, cofactor NADPH, 10 mM substrate, pH 7.0, 30 °C): 120 U/mg

CC(=O)O [acetic acid]
reverse reduction reaction (result in words) (Gox1122): No reverse reduction reaction
